From patent publication US20140005103A1, “SULFONAMIDE DERIVATIVES AND METHODS OF USE THEREOF FOR IMPROVING THE PHARMACOKINETICS OF A DRUG” (Merck, Sharp & Dohme Corp., priority 2012, published 2014) come the findings set out here.

A value given as a limit tells only on which side of the number the result lay.

One data set has as its target T1, CYP2C19 (Homo sapiens, UniProt P33261).
T1 construct: 0.1 mg/mL protein human liver microsomes (BD Gentest); tissue BD Gentest; host or cells: human liver microsomes
Kind of data set: Cocktail CYP assay, mephenytoin 4'-hydroxylation. In kind it is in vitro ADME. The conditions noted are these: human liver microsomes, 30 μM mephenytoin; test concentrations up to 10 μM. On the procedure:
(§1) Determination of IC50 in a Cocktail Assay for CYPs 1A2, 2C9, 2C19, 2D6 and 3A4
(§2) This assay was performed in a standard 96-well plate design. IC50 values were calculated from the percent inhibition observed for each test compound at 6 concentrations (for example, 0.0032, 0.016, 0.08, 0.4, 2 and 10 μM). The incubation substrate mix contains 10 μM phenacetin (1A2), 5 μM diclofenac (2C9), 30 μM mephenyloin (2C19), 5 μM dextromethorphan (2D6) and 2 μM midazolam (3A4), 0.1 mg/mL protein human liver microsomes (BD Gentest), 1 mM NAPDH, 3.3 mM MgCl2 and 100 mM potassium phosphate buffer (pH 7.4). The production of the metabolite of each probe substrate was determined after incubation for 10 min at 37° C. Quantitation of the metabolite peak area ratio against an internal standard (tolbutamide) was determined by LC/MS/MS analysis following acetonitrile treatment of the incubations.
(§3) Samples were analyzed in the MRM mode with a SCIEX API-4000 mass spectrometer (Applied Biosystems, Foster City, Calif.), with a Shimadzu LC-20 AD pump (Shimadzu corporation, Kyoto, JP) and a CTC PAL autosampler (Agilent Technologies, Switzerland). A Phenomenex, Luna, […], 100 A, 2.00×30 mm HPLC column was used for the separation. The mobile phases were: (A) 0.1% formic acid in water and (B) 0.1% formic acid in acetonitrile. The binary gradient was as follows.
(§4) The peak area ratio of the analyte to the internal standard was used to quantify the metabolite. The values of peak area ratios in the presence of test compound were compared to those of maximum or minimum controls and were expressed as % inhibition by interpolating between the maximum and minimum peak area ratios. Incubations with no inhibitor were defined as the maxima.
(§5) The following equation was used to calculate the % inhibition:
(§6) [1−[(X−Low control)/(High control−Low control)]]*100
(§7) For the IC50 calculation, SigmaPlot was used to plot the mean % inhibition versus the test compound concentrations and for non-linear regression analysis of the data. Depending on the range of data points defining the inhibition curve, the data may have been fit to the 4-parameter logistic equation.
(In general: Liver microsomes are a subcellular fraction often used to study metabolism.)

A further data set deals with T2, CYP2D6 (Homo sapiens, UniProt P10635).
T2 construct: 0.1 mg/mL protein human liver microsomes (BD Gentest); tissue BD Gentest; host or cells: human liver microsomes
T2 sequence (P10635 whole entry): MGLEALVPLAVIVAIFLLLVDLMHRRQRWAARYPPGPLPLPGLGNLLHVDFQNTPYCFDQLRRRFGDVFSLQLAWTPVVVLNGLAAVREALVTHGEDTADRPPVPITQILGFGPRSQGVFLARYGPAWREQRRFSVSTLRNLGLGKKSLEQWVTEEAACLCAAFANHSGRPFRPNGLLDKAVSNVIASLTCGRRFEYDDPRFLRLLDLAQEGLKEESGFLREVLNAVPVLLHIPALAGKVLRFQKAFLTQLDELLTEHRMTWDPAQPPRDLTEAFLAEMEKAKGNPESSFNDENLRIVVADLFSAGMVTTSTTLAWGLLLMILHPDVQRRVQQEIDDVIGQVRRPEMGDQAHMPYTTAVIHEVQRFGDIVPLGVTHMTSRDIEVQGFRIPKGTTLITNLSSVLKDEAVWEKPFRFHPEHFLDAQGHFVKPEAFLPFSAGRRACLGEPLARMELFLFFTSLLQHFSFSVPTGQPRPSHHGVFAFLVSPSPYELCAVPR
As to the kind of experiment: Cocktail CYP assay, dextromethorphan O-demethylation. It counts as in vitro ADME. The conditions noted are these: human liver microsomes, 5 μM dextromethorphan; test concentrations up to 10 μM. How it is done: as §1, §2, §3, §4, §5, §6, §7

A further data set deals with T3, CYP1A2 (Homo sapiens, UniProt P05177).
T3 construct: 0.1 mg/mL protein human liver microsomes (BD Gentest); tissue BD Gentest; host or cells: human liver microsomes
T3 sequence (P05177 1-516): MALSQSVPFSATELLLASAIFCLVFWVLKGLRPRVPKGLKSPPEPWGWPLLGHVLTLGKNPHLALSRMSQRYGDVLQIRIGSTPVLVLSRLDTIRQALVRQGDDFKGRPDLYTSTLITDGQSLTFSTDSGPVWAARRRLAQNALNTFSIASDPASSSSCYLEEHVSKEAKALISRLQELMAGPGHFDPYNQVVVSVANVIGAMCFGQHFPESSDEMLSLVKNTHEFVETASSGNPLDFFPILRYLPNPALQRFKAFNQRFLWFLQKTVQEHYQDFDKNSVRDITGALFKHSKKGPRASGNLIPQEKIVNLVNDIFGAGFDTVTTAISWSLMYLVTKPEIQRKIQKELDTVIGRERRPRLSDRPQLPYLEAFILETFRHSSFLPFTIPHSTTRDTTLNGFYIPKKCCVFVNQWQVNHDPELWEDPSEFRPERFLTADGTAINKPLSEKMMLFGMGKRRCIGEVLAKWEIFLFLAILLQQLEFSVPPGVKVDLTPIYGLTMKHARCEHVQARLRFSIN
Kind of data set: Cocktail CYP assay, phenacetin O-deethylation. The following applies: human liver microsomes, 10 μM phenacetin; test concentrations up to 10 μM. It counts as in vitro ADME. How it is done:
as §1, §2, §3, §4, §5, §6, §7

For another data set, the target named is T4, CYP2C9 (Homo sapiens, UniProt P11712).
T4 construct: 0.1 mg/mL protein human liver microsomes (BD Gentest); tissue BD Gentest; host or cells: human liver microsomes
T4 sequence (P11712 whole entry): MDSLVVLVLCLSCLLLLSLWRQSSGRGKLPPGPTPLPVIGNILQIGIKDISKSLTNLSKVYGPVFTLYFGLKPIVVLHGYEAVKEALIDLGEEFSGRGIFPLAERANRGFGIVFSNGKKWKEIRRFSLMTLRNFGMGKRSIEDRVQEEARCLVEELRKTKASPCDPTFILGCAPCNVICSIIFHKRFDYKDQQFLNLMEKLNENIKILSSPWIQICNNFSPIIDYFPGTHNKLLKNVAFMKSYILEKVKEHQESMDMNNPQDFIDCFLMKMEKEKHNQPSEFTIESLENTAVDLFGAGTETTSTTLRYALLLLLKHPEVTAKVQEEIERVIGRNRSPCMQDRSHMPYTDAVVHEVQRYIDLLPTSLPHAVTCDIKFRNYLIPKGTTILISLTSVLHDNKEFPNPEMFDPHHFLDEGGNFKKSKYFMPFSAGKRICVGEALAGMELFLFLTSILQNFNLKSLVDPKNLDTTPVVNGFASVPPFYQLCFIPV
As to the kind of experiment: Cocktail CYP assay, diclofenac 4'-hydroxylation. In kind it is in vitro ADME. The following applies: human liver microsomes, 5 μM diclofenac; test concentrations up to 10 μM. On the procedure:
as §1, §2, §3, §4, §5, §6, §7

For the next data set, the target named is CYP3A4 (Homo sapiens, UniProt P08684). Kind of data set: IC50 vs CYP3A by inhibition of lopinavir metabolism in human liver microsomes. The following applies: pH 7.4, human liver microsomes, 1.5 μM lopinavir, 8 min at 37° C., test concentrations 0.098-100 nM, read-out: 3A4(LPV). In kind it is biochemical. How it is done:
Determination of IC50 vs CYP3A by Measurement of Inhibition of Lopinavir Metabolism
This assay was performed in a standard 96-well plate design. IC50 values were calculated from the percent inhibition observed for each test compound at 6 concentrations (for example, 0.098, 0.391, 1.56, 6.25, 25 and 100 nM). The incubation substrate mix contains 1.5 μM lopinavir, 0.01 mg/mL protein human liver microsomes (BD Gentest), 1 mM NAPDH, 3.3 mM MgCl2 and 100 mM potassium phosphate buffer (pH 7.4). The production of the sum of three hydroxylated metabolites (M2: 6-hydroxy lopinavir, M3: 4-hydroxy lopinavir, M4: 4-hydroxy lopinavir (epimer of M3), Kumar et al., 1999) was determined after incubation for 8 min at 37° C. Quantitation of the metabolite peak area ratio against an internal standard (tolbutamide) was determined by LC/MS/MS analysis following acetonitrile treatment of the incubations.
Samples were analyzed in the MRM mode with a SCIEX API-4000 mass spectrometer (Applied Biosystems, Foster City, Calif.), with a Shimadzu LC-20 AD pump (Shimadzu corporation, Kyoto, JP) and a CTC PAL autosampler (Agilent Technologies, Switzerland). A Phenomenex, Luna, 5 μm, 100 A, 2.00×30 mm HPLC column was used for the separation. The mobile phases were: (A) 0.1% formic acid in water and (B) 0.1% formic acid in acetonitrile. The binary gradient was as follows.
The peak area ratio of the analyte to the internal standard was used to quantify the metabolite. The values of peak area ratios in the presence of test compound were compared to those of maximum or minimum controls and were expressed as % inhibition by interpolating between the maximum and minimum peak area ratios. Incubations with no inhibitor were defined as the maxima and with 5 μM ketoconazole were defined as the minima
as §5, §6, §7

The target of another data set is T5, human CYP11B1 (Homo sapiens, UniProt P15538).
T5 construct: expressed in transfected cells
T5 sequence (P15538 25-503): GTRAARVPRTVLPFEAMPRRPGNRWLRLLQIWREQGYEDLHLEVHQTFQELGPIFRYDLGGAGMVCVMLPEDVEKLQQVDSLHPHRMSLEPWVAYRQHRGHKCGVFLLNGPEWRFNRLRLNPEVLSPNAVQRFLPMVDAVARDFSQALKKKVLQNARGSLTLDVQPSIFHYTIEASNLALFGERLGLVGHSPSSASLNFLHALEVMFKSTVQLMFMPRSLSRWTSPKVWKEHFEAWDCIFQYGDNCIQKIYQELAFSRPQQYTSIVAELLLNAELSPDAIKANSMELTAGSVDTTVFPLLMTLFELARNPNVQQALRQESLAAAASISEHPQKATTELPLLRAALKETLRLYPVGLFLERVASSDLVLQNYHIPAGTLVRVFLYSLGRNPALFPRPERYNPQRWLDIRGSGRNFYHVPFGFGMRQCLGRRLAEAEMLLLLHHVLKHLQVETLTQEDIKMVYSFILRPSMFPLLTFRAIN
As to the kind of experiment: IC50 vs CYP11B1 by cortisol synthesis in V79 cells. In kind it is cell-based. The following applies: V79 cells expressing human CYP11B1, 1500 nM RSS, cortisol HTRF; test concentrations 0.5-10000 nM. How it is done:
Determination of IC50 vs CYP11B1/CYP11B2 by Measurement of Cortisol/Aldosterone Synthesis
This assay was performed in a standard 384-well plate design using cultured V79 cells stably expressing human CYP11B1 or human CYP11B2. Test compounds at 10 concentrations (for example, 10000, 3333.3, 1111.1, 370.4, 123.5, 41.2, 13.7, 4.6, 1.5 and 0.5 nM) were added in 384-well plate after the cell-seeding procedure. The incubation substrate contains 1500 nM RSS for CYP11B1 assay/750 nM DOC for CYP11B2 assay. The
Cortisol/Aldosterone production of cell culture supernatant was determined by Cortisol/Aldosterone HTRF kit after for about 15 hours incubation at RT (protect from light). IC50 values were calculated from the percent inhibition observed for each test compound at 10 concentrations.
The assay plate was read using Envision (Perkin Elmer, Waltham, Mass.) at 665 nm and 590 nm (using Filter Barcode of 217#, 205#; Mirror Barcode of 446#).
Data are analyzed using Assay Data Analyzer. All ratio data (665 nm/590 nm) are back calculated according to the standard curve, resulting in Cortisol/Aldosterone concentrations. IC50 values are reported as the Inflection Point (IP) of a four parameter fit of the titration data.
as §5
% Activity=100×{1−(Sample_back calculated Cortisol/Aldosterone concentration−LC_back calculated Cortisol/Aldosterone concentration)/(HC_back calculated Cortisol/Aldosterone concentration−LC_back calculated Cortisol/Aldosterone concentration)}

Sequence of CYP3A4 (P08684 2-503): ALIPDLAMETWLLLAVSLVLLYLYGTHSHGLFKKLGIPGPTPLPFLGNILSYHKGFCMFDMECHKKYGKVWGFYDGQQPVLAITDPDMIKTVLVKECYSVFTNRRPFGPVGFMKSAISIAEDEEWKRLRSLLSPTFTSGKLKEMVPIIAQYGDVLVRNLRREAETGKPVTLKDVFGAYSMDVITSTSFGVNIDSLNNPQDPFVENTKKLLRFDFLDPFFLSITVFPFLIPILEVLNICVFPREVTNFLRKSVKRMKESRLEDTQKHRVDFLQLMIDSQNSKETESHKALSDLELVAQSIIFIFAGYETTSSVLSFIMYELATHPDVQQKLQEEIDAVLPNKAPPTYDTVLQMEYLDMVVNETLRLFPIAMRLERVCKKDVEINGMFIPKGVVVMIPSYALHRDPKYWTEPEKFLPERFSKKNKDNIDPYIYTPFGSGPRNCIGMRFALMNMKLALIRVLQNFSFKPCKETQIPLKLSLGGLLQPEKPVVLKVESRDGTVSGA
T1 sequence (P33261 whole entry): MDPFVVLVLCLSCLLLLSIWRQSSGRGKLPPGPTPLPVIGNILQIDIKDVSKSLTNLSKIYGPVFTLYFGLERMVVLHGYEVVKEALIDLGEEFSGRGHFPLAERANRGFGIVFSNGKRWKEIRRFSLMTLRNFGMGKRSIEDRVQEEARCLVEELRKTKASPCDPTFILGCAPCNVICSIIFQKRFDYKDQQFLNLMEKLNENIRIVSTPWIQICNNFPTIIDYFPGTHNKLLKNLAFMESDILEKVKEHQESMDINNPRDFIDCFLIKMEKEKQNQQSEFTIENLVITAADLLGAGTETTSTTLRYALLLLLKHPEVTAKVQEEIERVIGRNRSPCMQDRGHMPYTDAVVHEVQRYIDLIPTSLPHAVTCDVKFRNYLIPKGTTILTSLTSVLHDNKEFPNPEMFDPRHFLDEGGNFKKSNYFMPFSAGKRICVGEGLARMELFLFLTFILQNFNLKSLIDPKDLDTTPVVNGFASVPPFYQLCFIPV

`C[C@H](c1ccc(F)cc1)n1cncc1C1CC12CCN(S(=O)(=O)c1cnc(N3CCN(C)CC3)s1)CC2` (single isomer, unassigned) [Compound 43a]: the IC50 at CYP2C19 is more than 10 µM; against CYP2D6 it was 2.9 µM; against CYP1A2, more than 10 µM; at CYP2C9, more than 10 µM.

With `C[C@H](c1ccc(F)cc1)n1cncc1C1CC12CCN(S(=O)(=O)c1cnc(N3CCN(C)CC3)s1)CC2` (single isomer, unassigned) [Compound 43b], the IC50 on CYP2C19 was 9.2 µM; on CYP2D6, 3.6 µM; at CYP1A2, more than 10 µM; at CYP2C9 it was more than 10 µM.

As for `COC(c1cncn1[C@H](C)c1ccc(F)cc1)C1CCN(S(=O)(=O)c2cnc(Nc3ccc(C(F)(F)F)cn3)s2)CC1` (single isomer, unassigned) [Compound 45a], the IC50 against CYP2C19 was 1.13 µM; against CYP2D6, 5.68 µM; on CYP1A2, more than 10 µM; at CYP2C9, 0.336 µM. Further, on CYP3A4, the IC50 at 8 min was less than 0.00098 µM.

Consider `COC(c1cncn1[C@H](C)c1ccc(F)cc1)C1CCN(S(=O)(=O)c2cnc(Nc3ccc(C(F)(F)F)cn3)s2)CC1` (single isomer, unassigned) [Compound 45b], for which the IC50 at CYP2C19 is 4.49 µM; at CYP2D6, 7.85 µM; against CYP1A2 it was more than 10 µM; on CYP2C9 it was 1.45 µM.

Take `C[C@H](c1ccc(F)cc1)n1cncc1CN1CCN(S(=O)(=O)c2cnc(N3CCC(S(C)(=O)=O)C3)s2)CC1` (stereo partly drawn) [Compound 7]: the IC50 against CYP2C19 is more than 10 µM; against CYP2D6, more than 10 µM; against CYP1A2, more than 10 µM; against human CYP11B1, 4.09 µM; against CYP2C9 it was 3.39 µM.

Regarding `C[C@H](c1ccc(F)cc1)n1cncc1CN1CCN(S(=O)(=O)c2cnc(N3CC[C@@H]4OCCN[C@H]4C3)s2)CC1` [Compound 13], the IC50 is more than 10 µM at CYP2C19, more than 10 µM against CYP1A2, 1.56 µM against human CYP11B1 and 7.41 µM at CYP2C9. Moreover, the IC50 at 8 min at CYP3A4 was determined as 0.0014 µM.

With `C[C@H](c1ccc(F)cc1)n1cncc1CN1CCN(S(=O)(=O)c2cnc(N3CC[C@@H]4OCCN[C@H]4C3)s2)CC1` [Compound 14], the IC50 is more than 10 µM at CYP2C19, more than 10 µM against CYP1A2, 1.05 µM at human CYP11B1 and 9.76 µM on CYP2C9.

With `C[C@H](c1ccc(F)cc1)n1cncc1C1CN(C)CC2CN(S(=O)(=O)c3cnc(Nc4ccccn4)s3)CCN21` (stereo partly drawn) [Compound 41], the IC50 at CYP2C19 is 4.95 µM; on CYP2D6 it was 2.3 µM; at CYP1A2, more than 10 µM; on CYP2C9, 2.26 µM. Moreover, at CYP3A4, the IC50 at 8 min worked out at 0.0021 µM.

For `C[C@H](c1ccc(F)cc1)n1cncc1CC1CCN(S(=O)(=O)c2cnc(N3CCN(C)CC3)s2)CC1` [Compound 44], the IC50 was 8.39 µM against CYP2C19, 2.41 µM against CYP2D6, more than 10 µM against CYP1A2 and 3.57 µM at CYP2C9. The IC50 at 8 min on CYP3A4 was found to be 0.0011 µM.

On to `C[C@H](c1ccc(F)cc1)n1cncc1CC1(CO)CCN(S(=O)(=O)c2cnc(N3CCN(C)CC3)s2)CC1` [Compound 47], for which the IC50 against CYP2C19 was more than 10 µM; against CYP2D6 it was 5.84 µM; against CYP1A2 it was more than 10 µM; against CYP2C9, more than 10 µM. The IC50 at 8 min at CYP3A4 came out at 0.013 µM.

In the case of `C[C@H](c1ccc(F)cc1)n1cncc1CC1(C#N)CCN(S(=O)(=O)c2cnc(N3CCN(C)CC3)s2)CC1` [Compound 48], the IC50 against CYP2C19 was 8.06 µM; against CYP2D6, 2.85 µM; at CYP1A2 it was more than 10 µM; at CYP2C9 it was more than 10 µM. Moreover, the IC50 at 8 min at CYP3A4 was found to be 0.0094 µM.
